Data from publication PMC9387934, “Randomized single oral dose phase 1 study of safety, tolerability, and pharmacokinetics of Iminosugar UV-4 Hydrochloride (UV-4B) in healthy subjects” (PLoS Neglected Tropical Diseases, 2022).
Counter-ions that a name gives are not always drawn. Like-named read-outs stand apart in the source and are kept apart here.

Legend:
CYP2C8 = system: CYP2C8; set-up: method as in Investigator’s Brochure (IB); details: in vitro; ref Investigator’s Brochure (IB); cited from earlier work
CYP3A4/5 = system: CYP3A4/5; set-up: method as in Investigator’s Brochure (IB); details: ref Investigator’s Brochure (IB), cited from earlier work
[1] = set-up: method as in Investigator’s Brochure (IB); details: ref Investigator’s Brochure (IB), cited from earlier work
[2] = cited from earlier work
[3] = set-up: method as in Investigator’s Brochure (IB); details: mice, up to 250 mg/kg TID (750 mg/kg/day); ref Investigator’s Brochure (IB); cited from earlier work
[4] = set-up: method as in Investigator’s Brochure (IB); details: in vitro; ref Investigator’s Brochure (IB); cited from earlier work
DENV = details: cited from earlier work
[5] = cited from earlier work; remark: listed apart in the source
[6] = set-up: method as in Investigator’s Brochure (IB); details: 50 mg/kg/day for 12 days; ref Investigator’s Brochure (IB); cited from earlier work
DENV-2 S221 = details: ref Investigator’s Brochure (IB), cited from earlier work
[7] = rat, cited from earlier work
[8] = 14-day GLP toxicology study in mice (UV4-COV-036); details: Crl:CD1(ICR), mouse, in vivo, 300 mg/kg/day, read-out: Daily exposure at NOAEL [3 x AUC(0-8)]
Procedure: Fourteen-day studies were conducted in mice and dogs. […]
The inverted AST/ALT ratio […]
and lymphocyte depletion were reversible. Thymus weight decrease in females was reversible but thymus weight decreases in males were not. However, because the apparent […]
microscopic thymus findings, thymus weight differences at the recovery necropsy were considered not toxicologically important. In mice at 25 mg/kg/dose (75 mg/kg/day) there were decreased thymus weights (males), follicular epithelium vacuolation in the thyroid, and lymphoid depletion of the thymus (males). All findings were reversible but a NOEL was not present at this dose level. At the no NOAEL of 300 mg/kg/day, there were clinical hematology, chemistry, and anatomic pathology findings similar to those observed in the dogs. All findings were reversible.
Based on these observations, the NOAEL for UV-4B following 14 days of TID administration in mice is considered to be 300 mg/kg/day. This dose level corresponded to Day 14 mean Cmax […]
ng•h/mL, respectively. Daily exposure at NOAEL [calculated as 3 x AUC(0-8)] is estimated at 163,305 ng•h/mL. In dogs, the NOAEL following 14 days of TID administration is considered to be 30 mg/kg/day. At the end of the dosing phase, this dose level corresponded to average […]
Daily exposure [calculated as 3 x AUC(0-8)] is estimated at 32,820 ng•h/mL.
This material is the property of the Unither Virology. […]

[9] = set-up: method as in Investigator’s Brochure (IB); details: beagle dogs, single dose of 400 mg/kg; ref Investigator’s Brochure (IB); cited from earlier work
[10] = set-up: method as in Investigator’s Brochure (IB); details: 50 mg/kg/day for 13 days; ref Investigator’s Brochure (IB); cited from earlier work
[11] = 20 mg/kg TID, started 1 hour before infection, ref UV4-LIA-0004
[12] = 20 mg/kg TID, started 24 hours after infection, ref UV4-LIA-0003b
[13] = 20 mg/kg TID, started 24 hours after infection, ref UV4-LIA-0004
[14] = 20 mg/kg TID, started 48 hours after infection, ref UV4-LIA-0003b
[15] = 20 mg/kg TID, started 48 hours after infection, ref UV4-LIA-0004
[16] = oral, first dose 1 hour before infection, TID for 7 days

COCCCCCCCCCN1C[C@H](O)[C@@H](O)[C@H](O)[C@H]1CO [UV-4, N-(9’-methoxynonyl)-1-deoxynojirimycin]
Direct inhibition of CYP2C8 (CYP2C8): No clinically relevant direct inhibition | Direct inhibition of CYP3A4/5 (CYP3A4/5; midazolam 1’-hydroxylase): No clinically relevant direct inhibition | Direct inhibition of CYP3A4/5 (CYP3A4/5; testosterone 6β-hydroxylase): weak direct inhibition | Estimated IC50 (CYP3A4/5; testosterone 6β-hydroxylase): > 191 µg/mL | IC50 (CYP3A4/5; testosterone 6β-hydroxylase, read-out: Estimated IC50): > 600 µM

COCCCCCCCCCN1C[C@H](O)[C@@H](O)[C@H](O)[C@H]1CO [UV-4B, N-(9’-methoxynonyl)-1-deoxynojirimycin hydrochloride]
Fertility finding ([1]; male and female rats, 50 mg/kg/day before mating through Gestation Day 13): decreased pregnancy and fertility indices | Finding in males ([1]; rats, all doses (8, 20, and 50 mg/kg/day)): decreased sperm motility | Vacuoles in kidney (F) ([2]; rat, 25 TID mg/kg): P(F) | Swollen paws/legs and perioral appearance and red skin, paws and/or feet ([2]; rat, 60 TID mg/kg, second symbol (later day)): − | Decreased lymphocytes in mesenteric lymph node (F) ([2]; rat, 60 TID mg/kg): P(F) | Possible histamine-like in-life clinical signs ([2]; rats, 60 mg/kg/dose TID, Day 1 or Day 2, transient, ref Investigator’s Brochure (IB)): swollen paws/legs and perioral appearance | No observed effect level (NOEL) ([2]; rats, TID for seven days, lowest dose exceeded the NOEL, ref Investigator’s Brochure (IB)): < 10 mg/kg/dose | Time to appearance of histamine-like signs after treatment ([2]; rats, first or second daily dose of 60 mg/kg/dose (TID), ref Investigator’s Brochure (IB)): ≤ 120 min | Finding at 25 mg/kg/dose (TID) ([2]; rats, seven days, ref Investigator’s Brochure (IB)): dose-limiting erosions/ulcerations in the stomach | CNS assessments [3]: no adverse treatment-related effects | Mutagenicity, mouse lymphoma assay [4]: not found to be mutagenic or clastogenic | Survival rate (DENV; 2.5 mg/kg TID, ref UV4-LIA-0002): 40% | Survival rate (DENV; 5 mg/kg TID, ref UV4-LIA-0002): 50% | Mean time to death (MTTD) (DENV; 20 mg/kg TID, started 1 hour before infection, all surviving at end of study, ref UV4-LIA-0003b): more than 11 days | Survival rate (DENV; 20 mg/kg TID, started 1 hour before infection, ref UV4-LIA-0003b): 100% | Mean time to death (MTTD) (DENV; [11]): 9.1 days | Survival rate at 11 days post-infection (DENV; [11]): 30% | Mean time to death (MTTD) (DENV; [12]): 7 days | Survival rate (DENV; [12]): 80% | Mean time to death (MTTD) (DENV; [13]): 10.5 days | Survival rate at 11 days post-infection (DENV; [13]): 60% | Mean time to death (MTTD) (DENV; [14]): 9.3 days | Survival rate (DENV; [14]): 70% | Mean time to death (MTTD) (DENV; [15]): 6 days | Survival rate at 11 days post-infection (DENV; [15]): 40% | Minimal effective dose (survival of 90% to 100%) (DENV; doses 2.5 to 40 mg/kg TID, first dose 1 hour prior to infection, ref UV4-LIA-0002): 10 mg/kg TID | No clinically relevant effects ([5]; dog CV single dose, 10 mg/kg): − | Cardiovascular assessment ([5]; dogs, 10 mg/kg, ref Investigator’s Brochure (IB)): no clinically relevant effects | Cardiovascular assessment, only change outside the normal range ([5]; dogs, 50 or 200 mg/kg, ref Investigator’s Brochure (IB)): decreased arterial pulse pressure | Finding in rat offspring [6]: increase in skeletal malformations | 50% effective dose (DENV-2 S221; [16]): 5 mg/kg TID | Minimal effective dose (90% survival rate) (DENV-2 S221; [16]): 10 mg/kg TID | 50% effective dose (DENV-2 S221; step-wise minimal effective dose and therapeutic window studies, start 24 or 48 hours after infection): 20 mg/kg TID | Dose with increased WBC and lymphocyte count ([7]; printed men): ≥ 10 mg/kg/dose, TID | Dose with swollen paws/legs and perioral appearance and red skin, paws, and/or feet ([7]; women [sic]): < 60 mg/kg/dose, TID | Cardiovascular Effects [7]: none observed | Dose with decreased PLT and reticulocyte count [7]: ≥ 10 mg/kg/dose, TID | Dose with erosion/ulcer, inflammation, decreased mucus in stomach, hyperplasia/hyperkeratosis [7]: ≥ 25 mg/kg/dose, TID | Dose with extramedullary hematopoiesis decreased in spleen and liver [7]: 60 mg/kg/dose, TID | Dose with increased AST and ALT [7]: ≥ 10 mg/kg/dose, TID | AUC(0-t) [8]: 163 µg·h/mL | Neurologic finding [9]: tremors | Finding in rabbit offspring [10]: skeletal and visceral malformations
